The values below are quoted from earlier work in PMC4414144, “Plasmin releases the anti-tumor peptide from the NC1 domain of collagen XIX” (Oncotarget, 2015).

Data set [1] deals with experimental murine melanoma. The note with it: experimental murine melanoma model; ref [26]; cited from earlier work. The source says: (§1) Type XIX collagen is one of the minor basement membrane-associated collagens. It was discovered in 1992, isolated from rhabdomyosarcoma cell lines and named collagen Y [16]. This discovery was completed in 1993 by Myers et al who gave it the name of RH collagen. It is a 400 kDa homotrimer, composed by the association of three α1(XIX) chains. Each chain comprises 1142 residues, including six non-collagenous domains (NC1-NC6) separated by five collagenous domains (Col1-Col5). This collagen presents high structural homology with other types of collagens IX, XII, XIV, X ...

The next data set deals with tumor angiogenesis. To be noted: in vitro and in vivo; ref [26]; cited from earlier work.
Excerpt: as §1

In a further data set the test system is tumor cells. The note with it: in vitro; ref [25]; cited from earlier work.
Excerpt: as §1

“NPEDCLYPVSHAHQRTGGN [NC1(XIX), C-terminal NC1(XIX) domain (…), 19 amino acids]”: the “Inhibition of in vivo tumor growth” value in data set [1] is “strong inhibition”. Further, the Tumor angiogenesis result with tumor angiogenesis is “inhibited tumor angiogenesis in vitro and in vivo”. Further, the “Tumor cell migration and invasion” value in the data set on tumor cells is “inhibited the migration and invasion capacities of tumor cells in vitro”.
